Assay results: US7109176B2, “Nonsteroidal anti-inflammatory substances, compositions and methods for their use” (Pliva-Istrazivacki Institut D.o.o., priority 2002, dated 2006)

Columns and labels:
TNF-α [1] = test: Determination of TNF-α secretion in LPS-stimulated mononuclear cells of human peripheral blood in vitro (ELISA); assay type: cell-based; settings: human PBMC, LPS 1 μg/mL, 18 to 24 hours, TNF-α in supernatant by ELISA
Experimental: Determination of TNF-α and IL-1β Secretion in Mononuclear Cells of Human Peripheral Blood In Vitro
Peripheral blood mononuclear cells (PMBC) were prepared from heparinized whole blood after separation of PMBC on Ficoll-Hypaque (Amersham-Pharmacia). For the determination of TNF-α level, 3.5-5×10^4 cells were cultured in a total volume of 200 μl within a period of 18 to 24 hours on microtiter flat bottom plates (96 wells, Falcon) in RPMI 1640 medium supplemented with 10% of heat-inactivated human AB serum (Croatian Centre For Transfusion Medicine, Zagreb), 100 units/mL of penicillin, […] and 20 mM HEPES (Invitrogen Life Technologies). The cells were incubated at 37° C. in an atmosphere with 5% CO2 and 90% moisture. The cells in a negative control were cultured only in the medium (NC), while the secretion of TNF-α in a positive control was stimulated by the addition of 1 μg/mL lipopolysaccharide (LPS, E. coli serotype 0111:B4, SIGMA) (PC) and the effect of the tested substances on TNF-α secretion was tested after their addition to cell cultures stimulated with LPS (TS). […] The test sensitivity was <3 pg/mL TNF-α. The determination of IL-1β level was performed as described for TNF-α determination, only that 1×10^5 cells/well and 0.1 ng/mL of LPS were used. IL-1β level was determined by ELISA (R&D Systems). […] IC-50 was calculated using Graph Pad Prism Software. Determination of TNF-α Secretion by RAW 264.7 Cells

[2] = target: T1, Human Prostaglandin-H Synthase—1 (hPGH-1) (Homo sapiens, UniProt P23219); test: Human prostaglandin-H synthase-1 (hPGH-1) inhibition assay in transfected COS-7 cells (PGE-2 readout); assay type: cell-based; settings: COS-7 cells transfected with hPGH-1, arachidonic acid 20 μM, PGE-2 measured
T1 construct: expressed in transfected cells; host or cells: COS-7 cells (ATCC), transient transfection with Lipofectamine 2000
T1 sequence (P23219 24-599): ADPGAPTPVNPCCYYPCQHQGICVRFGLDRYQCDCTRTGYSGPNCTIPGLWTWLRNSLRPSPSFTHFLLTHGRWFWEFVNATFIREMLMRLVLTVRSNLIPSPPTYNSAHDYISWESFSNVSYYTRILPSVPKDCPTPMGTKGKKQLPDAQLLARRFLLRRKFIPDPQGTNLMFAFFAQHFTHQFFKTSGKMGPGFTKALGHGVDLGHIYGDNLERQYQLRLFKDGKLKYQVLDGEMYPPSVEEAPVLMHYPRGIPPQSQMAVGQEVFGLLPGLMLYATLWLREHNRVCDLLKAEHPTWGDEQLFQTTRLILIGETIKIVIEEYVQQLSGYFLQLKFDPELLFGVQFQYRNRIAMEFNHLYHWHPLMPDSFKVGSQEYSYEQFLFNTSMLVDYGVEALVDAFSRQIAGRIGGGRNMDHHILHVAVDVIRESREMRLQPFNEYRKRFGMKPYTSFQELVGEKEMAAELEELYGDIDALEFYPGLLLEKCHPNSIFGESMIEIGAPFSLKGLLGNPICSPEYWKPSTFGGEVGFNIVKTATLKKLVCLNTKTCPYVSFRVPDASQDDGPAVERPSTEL
Experimental: (§1) The cells were grown in 10% fetal bovine serum (FBS) in DMEM medium (Invitrogen Life Technologies) at 37° C. in an atmosphere with 5% CO2 and 90% moisture. 20 000 cells/well were plated in 96 well plate (Falcon). The cells in a negative control were cultured only in the medium (NC), while the secretion of TNF-α in a positive control was stimulated by the addition of 500 pg/mL lipopolysaccharide (LPS, E. coli serotype 0111:B4, SIGMA) (PC) and the effect of the tested substances on TNF-α secretion was tested after their addition to cell cultures stimulated with LPS (TS). […] Human Prostaglandin-H Synthase—1 (hPGH-1) and Human Prostaglandin-H Synthase—2 (hPGH-2) Inhibition Assay
(§2) Genes coding hPGH-1 and hPGH-2 were amplified with PCR using Platinum pfx DNA polymerase (Invitrogen Life Technologies) from human placenta cDNA library (Stratagene). Primer sequences used for hPGH-1 are: • 5′ […] 3′ (SEQ ID NO: 1) and • 5′ […] 3′ (SEQ ID NO: 2); for hPGH-2 • 5′ […] 3′ (SEQ ID NO: 3) and • 5′ […] 3′ (SEQ ID NO: 4). PCR products were cloned into HindIII and BamHI restriction sites of pcDNA3.1 (Hygro(+) plasmid (Invitrogen Life Technologies), sequences were confirmed by sequencing.
(§3) Transfection was performed on COS-7 cells (ATCC), cells were grown in 10% foetal bovine serum (FBS) in DMEM medium (Invitrogen Life Tecnologies), 37° C. in an atmosphere with 5% CO2 and 90% moisture, to full confluency in 24 well plate (Falcon). 1 μg plasmid DNA (pcDNA Hygro 3.1 (+) containing PGH-1 or PGH-2 gene, or pcDNA Hygro 3.1 (+) for negative control samples) was combined with 1,5 μl Lipofectamine 2000 (Invitrogen Life Technologies), following manufacturer's recommendations. […] After 30 minutes supernatants were removed and PGE-2 was measured with PGE-2 assay kit (Cayman) following manufacturer's instructions.
(§4) % inhibition was calculated by the following equation: % inhibition=(1−sample PGE-2 concentration/positive control PGE-2 concentration)*100 In Vivo Model of LPS-Induced Exccessive Secretion of TNF-α in Mice

[3] = target: T2, Human Prostaglandin-H Synthase—2 (hPGH-2) (Homo sapiens, UniProt P35354); test: Human prostaglandin-H synthase-2 (hPGH-2) inhibition assay in transfected COS-7 cells (PGE-2 readout); assay type: cell-based; settings: COS-7 cells transfected with hPGH-2, arachidonic acid 20 μM, PGE-2 measured
T2 construct: expressed in transfected cells; host or cells: COS-7 cells (ATCC), transient transfection with Lipofectamine 2000
T2 sequence (P35354 18-604): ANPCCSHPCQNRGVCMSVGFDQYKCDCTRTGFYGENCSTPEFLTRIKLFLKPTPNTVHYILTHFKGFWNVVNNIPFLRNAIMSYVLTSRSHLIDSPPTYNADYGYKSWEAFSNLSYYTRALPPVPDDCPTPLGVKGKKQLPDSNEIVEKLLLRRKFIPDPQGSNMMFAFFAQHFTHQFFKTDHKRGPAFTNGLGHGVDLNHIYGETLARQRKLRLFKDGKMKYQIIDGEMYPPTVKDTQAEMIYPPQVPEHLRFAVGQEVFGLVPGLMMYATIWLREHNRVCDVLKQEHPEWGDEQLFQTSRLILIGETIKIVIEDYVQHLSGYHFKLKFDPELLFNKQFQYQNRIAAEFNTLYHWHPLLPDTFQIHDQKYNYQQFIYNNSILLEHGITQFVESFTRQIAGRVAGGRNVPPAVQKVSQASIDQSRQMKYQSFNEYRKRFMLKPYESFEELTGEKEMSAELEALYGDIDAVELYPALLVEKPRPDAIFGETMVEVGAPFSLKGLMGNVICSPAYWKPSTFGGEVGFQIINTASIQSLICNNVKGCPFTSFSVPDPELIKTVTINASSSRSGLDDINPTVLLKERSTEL
Experimental: as §1, §2, §3, §4

TNF-α [4] = test: In vivo model of LPS-induced excessive secretion of TNF-α in mice; settings: male BALB/c mice, substance p.o. 30 minutes prior to i.p. LPS 25 μg/animal, plasma TNF-α two hours later; dose not given
Experimental: as §4
TNF-α secretion in mice was induced according to the previously described method (Badger A. M. Et al., J. of Pharmac. and Env. Therap. 279 1996 1453-1461). In the test, male BALB/c mice at an age of 8 to 12 weeks in groups of 6 to 10 animals were used. Animals were treated p.o. either only with the solvent (in a negative and a positive control) or with solutions of the substance 30 minutes prior to the i.p. treatment with LPS (E. coli serotype 0111:B4, Sigma) in a dose of 25 μg/animal. Two hours later the animals were euthanized by means of i.p. injection of Roumpun (Bayer) and Ketanest (Park-Davis). […] The TNF-α level in the plasma was determined by ELISA (Biosource, R&D Systems) according to the process prescribed by the manufacturer. The test sensitivity was <3 pg/mL TNF-α. The percentage inhibition of TNF-α production was calculated by the following equation: % inhibition=[1−(TS—NC)/(PC—NC)]*100

Structure (SMILES)	IC50 (TNF-α [1]) [µM]	IC50 [2] [µM]	IC50 [3] [µM]	LPS induced excessive secretion of TNF-α % of inhibition (TNF-α [4]) [%]
CC[C@H]1OC(=O)[C@H](C)[C@@H](O[C@H]2C[C@@](C)(OC)[C@@H](O)[C@H](C)O2)[C@H](C)[C@@H](O[C@@H]2O[C@H](C)C[C@H](N(C)C)[C@H]2O)[C@](C)(O)C[C@@H](C)CN(CCCNC(=O)Cc2c(C)n(C(=O)c3ccc(Cl)cc3)c3ccc(OC)cc23)[C@H](C)[C@@H](O)[C@]1(C)O [Ex. 4]	1	> 30	1	70
CC[C@H]1OC(=O)[C@H](C)[C@@H](O[C@H]2C[C@@](C)(OC)[C@@H](O)[C@H](C)O2)[C@H](C)[C@@H](O[C@@H]2O[C@H](C)C[C@H](N(C)C)[C@H]2O)[C@](C)(O)C[C@@H](C)CN(CCCNC(=O)[C@@H](C)c2ccc(CC(C)C)cc2)[C@H](C)[C@@H](O)[C@]1(C)O [Ex. 5]	1	10	10	66
CC(C)Cc1ccc([C@@H](C)C(=O)O)cc1 [S-(+)-Ibuprofen, S-(+)-ibuprofen, reference compound]	> 30			
CC[C@H]1OC(=O)[C@H](C)[C@@H](O)[C@H](C)[C@@H](O[C@@H]2O[C@H](C)C[C@H](N(C)C)[C@H]2O)[C@](C)(O)C[C@@H](C)CN(CCCNC(=O)Cc2c(C)n(C(=O)c3ccc(Cl)cc3)c3ccc(OC)cc23)[C@H](C)[C@@H](O)[C@]1(C)O [Ex. 10]	10	> 30	> 30	47
